Laboratory results from patent US20100221197A1, “ANTIMICROBIAL AGENT AND EXTERNAL PREPARATION FOR SKIN CONTAINING THE SAME” (TAIYO CORPORATION, priority 2007, published 2010).
Converted amounts (≈) assume the structure as drawn. Where two headings read alike, the source gives them in different places.

Assays:
[1] = tested on: Corynebacterium xerosis (JCM 1971); experiment: Antimicrobial test, growth inhibition minimum concentration; assay type: cell-based; conditions: C. xerosis(JCM1971)
Description: (§1) 0.5 mL of a previously sterilized medium (brand name: Brain Heart Infusion Liquid Medium supplied by Nihon Pharmaceutical Co., Ltd.) was added into a 96-well deep type microplate, and 0.5 mL of ricinoleic acid monoglyceride or diglycerine ricinoleic acid monoester of the present invention (synthesized in “1. Synthesis Example of ricinoleic acid monoglyceride” and “2. Synthesis Example of diglycerine ricinoleic acid monoester,” respectively) was added thereto and serially prepared so that the final concentration in the medium was 3 ppm, 6 ppm, 12 ppm, 25 ppm, 50 ppm, 100 ppm, 200 ppm and 400 ppm. 0.1 mL of each cultured bacterial medium of Corynebacterium xerosis (JCM 1971) or Staphylococcus aureus (JCM 2151) at approximately 1×10^8CFU/mL was added to this sample solution, stirred, and then cultured at 37° C. under an aerobic condition for 24 hours. The antimicrobial effect was visually determined, and compared with test plots in which the microorganism had not been added. The test plot in which no turbidity due to growth of the microorganism was observed was determined as the test plot having the antimicrobial effect, and the lowest concentration required for inhibiting the growth of the microorganism (hereinafter referred to as a “growth inhibition minimum concentration”) was measured. As a Comparative Example, the growth inhibition minimum concentration of 4-isopropyl-3-methylphenol known as the antimicrobial agent having a broad antimicrobial spectrum was measured in the same way as in the above. The growth inhibition minimum concentrations of ricinoleic acid monoglyceride and diglycerine ricinoleic acid monoester of the present invention (synthesized in “1. Synthesis Example of ricinoleic acid monoglyceride” and “2. Synthesis Example of diglycerine ricinoleic acid monoester,” respectively) for the 9 indicator bacterial species shown in Table 2 were measured in the same way as in “3. Antimicrobial test” described above.

[2] = tested on: Staphylococcus aureus (JCM 2151); experiment: as above; assay type: cell-based; conditions: S. aureus(JCM2151); for MIC: Staphylococcus aureus, read-out: minimum inhibitory concentration
Description: as §1

[3] = tested on: Propionibacterium acnes (JCM 6425); experiment: Antimicrobial test, growth inhibition minimum concentration (anaerobic); assay type: cell-based; conditions: Table 1, P. acnes(JCM6425), 37° C., 48 hours
Description: 0.5 mL of the previously sterilized medium (brand name: Brain Heart Infusion Liquid Medium supplied by Nihon Pharmaceutical Co., Ltd.) was added to a 96-well deep type microplate, and 0.5 mL of ricinoleic acid monoglyceride or diglycerine ricinoleic acid monoester of the present invention (synthesized in “1. Synthesis Example of ricinoleic acid monoglyceride” and “2. Synthesis Example of diglycerine ricinoleic acid monoester,” respectively) was added thereto and serially prepared so that the final concentration in the medium was 3 ppm, 6 ppm, 12 ppm, 25 ppm, 50 ppm, 100 ppm, 200 ppm and 400 ppm. 0.1 mL of a cultured bacterial medium of Propionibacterium acnes (JCM 6425) at approximately 1×10^8CFU/mL was added to this sample solution, and cultured at 37° C. under an anaerobic condition using a deoxidizer for 48 hours. The antimicrobial effect was visually determined, and the growth inhibition minimum concentration was measured. As a Comparative Example, the growth inhibition minimum concentration of 4-isopropyl-3-methylphenol known as the antimicrobial agent having a broad antimicrobial spectrum was measured in the same way as in the above.

S. mutans(JCM5175) = experiment: Antimicrobial test, growth inhibition minimum concentration; assay type: cell-based, Streptococcus mutans; conditions: for minimum inhibitory concentration: Table 2
Description: as §1

S. epidermidis(JCM2414) = experiment: as above; assay type: cell-based, Staphylococcus epidemidis; conditions: for minimum inhibitory concentration: Table 2
Description: as §1

B. cereus(JCM2152) = experiment: as above; assay type: cell-based, Bacillus cereus; conditions: for minimum inhibitory concentration: Table 2
Description: as §1

[4] = tested on: L. monocytogenes(JCM7671); experiment: as above; assay type: cell-based, Listeria monocytogenes; conditions: for minimum inhibitory concentration: Table 2
Description: as §1

E. coli(JCM1649) = experiment: as above; assay type: cell-based, Escherichia coli; conditions: for antimicrobial activity against Escherichia coli: statement in words from Table 2
Description: as §1

[5] = tested on: Staphylococcus aureus (JCM 2151); experiment: Microbicidal test for Staphylococcus aureus; assay type: cell-based; conditions: FIG. 1; for retention time for reducing the number of bacteria to 1/1000 or less: 200 ppm sample in 0.2 M phosphate buffer (pH7.0), aerobic
Description: Ricinoleic acid monoglyceride synthesized in “1. Synthesis Example of ricinoleic acid monoglyceride” was added to a 0.2 M phosphate buffer (pH7.0) to prepare a 200 ppm sample. 0.1 mL of Staphylococcus aureus (JCM 2151) at approximately 1×10^8CFU/mL was added to 5 mL of the sample. While being kept under the aerobic condition, the bacterial sample was taken at 0, 5, 10, 30, 60 and 120 minutes after the addition, and the number of survival bacteria in the sample was counted at each retention time. Specifically, using a Brain Heart Infusion agar medium, the sample was serially diluted, cultured using a flat plate smear method at 37° C. for 48 hours, and then the number of bacteria was counted. As a comparative control, 4-isopropyl-3-methylphenol was simultaneously evaluated in the same way as in the above.

[6] = tested on: Propionibacterium acnes (JCM 6425); experiment: Microbicidal test for Propionibacterium acnes; assay type: cell-based; conditions: FIG. 2; for retention time for reducing the number of bacteria to 1/100 or less: 200 ppm sample in 0.2 M phosphate buffer (pH7.0), anaerobic
Description: Ricinoleic acid monoglyceride synthesized in “1. Synthesis Example of ricinoleic acid monoglyceride” was added to a 0.2 M phosphate buffer (pH7.0) to prepare a 200 ppm sample. 0.1 mL of Propionibacterium acnes (JCM 6425) at approximately 1×10^8CFU/mL was added to 5 mL of the sample. While being kept under the anaerobic condition, the bacterial sample was taken at 0, 5, 10, 30, 60 and 120 minutes after the addition, and the number of survival bacteria in the sample was counted at each retention time. Specifically, using a GAM agar medium, the sample was serially diluted, cultured using the flat plate smear method at 37° C. under the anaerobic condition for 4 days, and then the number of bacteria was counted. As the comparative control, 4-isopropyl-3-methylphenol was simultaneously evaluated in the same way as in the above.

B. subtile(JCM2151) = experiment: Antimicrobial test, growth inhibition minimum concentration; assay type: cell-based, Bacillus subtilis; conditions: Table 2
Description: as §1

P. gingivalis(JCM8525) = experiment: as above; assay type: cell-based, Porphyromonas gingivalis; conditions: Table 2
Description: as §1

[7] = Compounding property in external preparations for skin; assay type: physicochemical
Description: Hyaluronic acid, ethanol, glycerine and ricinoleic acid monoglyceride were mixed, and then purified water was added to obtain a skin lotion.
Squalane, jojoba oil, bees wax and sorbitan sesquioleate were mixed, heated to 70° C. and dissolved (this was a mixture A). On the other hand, xanthan gum, 1,3-butylene glycol, ethanol and ricinoleic acid monoglyceride were mixed at room temperature (this was a mixture B). Subsequently, the mixture A and the mixture B were mixed, heated to 60° C., and added little by little to the purified water in which the N-palm oil fatty acid acyl L-arginine ethyl-DL-pyrrolidone carboxylate salt had been added, and vigorously stirring to emulsify to obtain a milky lotion.
Squalane, stearic acid, bees wax, stearyl alcohol and ricinoleic acid monoglyceride were mixed, heated to 70° C. and dissolved. The N-palm oil fatty acid acyl L-arginine ethyl-DL-pyrrolidone carboxylate salt and the purified water were added little by little to these heated and dissolved oil-based ingredients, and these were stirred well to obtain a cream.

[8] = Table 1, 37° C., aerobic, 24 hours

Row | SMILES | minimum inhibitory concentration ([1]; Table 2) [ppm] | minimum inhibitory concentration ([2]; Table 2) [ppm] | minimum inhibitory concentration (S. mutans(JCM5175)) [ppm] | minimum inhibitory concentration (S. epidermidis(JCM2414)) [ppm] | minimum inhibitory concentration (B. subtile(JCM2151)) [ppm] | minimum inhibitory concentration (B. cereus(JCM2152)) [ppm] | minimum inhibitory concentration [4] [ppm] | minimum inhibitory concentration (E. coli(JCM1649); Table 2, E. coli(JCM1649)) [ppm] | minimum inhibitory concentration (P. gingivalis(JCM8525)) [ppm] | other results
1 | Cc1cc(O)ccc1C(C)C [4-isopropyl-3-methyl phenol, 4-isopropyl-3-methylphenol] | – | – | – | – | – | – | – | – | – | MIC ([1]; Corynebacterium xerosis, Table 1, 37° C., aerobic, 24 hours, read-out: minimum inhibitory concentration): 200 µg/mL (≈ 1330 µM); MIC [2, 8]: 200 µg/mL (≈ 1330 µM); MIC ([2]; Table 2): 200 µg/mL (≈ 1330 µM); MIC ([3]; Cutibacterium acnes, read-out: minimum inhibitory concentration): 200 µg/mL (≈ 1330 µM); MIC (S. mutans(JCM5175); Streptococcus mutans, Table 2, read-out: minimum inhibitory concentration): 200 µg/mL (≈ 1330 µM); MIC (S. epidermidis(JCM2414); Staphylococcus epidermidis, Table 2, read-out: minimum inhibitory concentration): 200 µg/mL (≈ 1330 µM); MIC (B. cereus(JCM2152); Bacillus cereus, Table 2, read-out: minimum inhibitory concentration): 200 µg/mL (≈ 1330 µM); MIC ([4]; Listeria monocytogenes, Table 2, read-out: minimum inhibitory concentration): 200 µg/mL (≈ 1330 µM); MIC (E. coli(JCM1649); Escherichia coli, Table 2, E. coli(JCM1649), read-out: minimum inhibitory concentration): 400 µg/mL (≈ 2660 µM); retention time for reducing the number of bacteria to 1/1000 or less [5]: 30 min; microbicidal action for 10 minutes ([5]; 200 ppm, retention time 10 minutes): weak; retention time for reducing the number of bacteria to 1/100 or less [6]: 10 min; microbicidal action for 5 minutes ([6]; 200 ppm, retention time 5 minutes): weak
2 | CCCCCCCCCCCC(=O)OCC(O)COCC(O)CO (stereo not drawn) [diglycerin lauric acid monoester] | 200 | 50 | 50 | 100 | 100 | 100 | 200 | >400 | – | –
3 | CCCCCCCCCCCCCC(=O)OCC(O)COCC(O)CO (stereo not drawn) [diglycerin myristic acid monoester] | 100 | 50 | 50 | >400 | 25 | – | – | >400 | – | –
4 | CCCCCCC(O)CC=CCCCCCCCC(=O)OCC(O)COCC(O)CO (stereo not drawn) [diglycerin ricinoleic acid monoester, diglycerine ricinoleic acid monoester] | 25 | 50 | 50 | 50 | 50 | 50 | 50 | >400 | – | minimum inhibitory concentration [1, 8]: 50 ppm; minimum inhibitory concentration [2, 8]: 50 ppm; minimum inhibitory concentration [3]: 100 ppm; antimicrobial activity against Escherichia coli (E. coli(JCM1649)): did not exhibit antimicrobial activity
5 | CCCCCCCCCCCC(=O)OCC(O)CO (stereo not drawn) [lauric acid monoglyceride] | 100 | 50 | 25 | 25 | 25 | 25 | 25 | >400 | 13 | –
6 | CCCCCCCCCCCCCC(=O)OCC(O)CO (stereo not drawn) [myristic acid monoglyceride] | 400 | 400 | 100 | >400 | >400 | 400 | 200 | >400 | 50 | –
7 | CCCCCC[C@@H](O)C/C=C\CCCCCCCC(=O)OCC(O)CO (stereo partly drawn) [ricinoleic acid monoglyceride] | 25 | 25 | 25 | 25 | 25 | 12.5 | 25 | >400 | 6 | minimum inhibitory concentration [1, 8]: 25 ppm; minimum inhibitory concentration [2, 8]: 25 ppm; minimum inhibitory concentration [3]: 50 ppm; antimicrobial activity against Escherichia coli (E. coli(JCM1649)): did not exhibit antimicrobial activity; retention time for reducing the number of bacteria to 1/1000 or less [5]: ≤ 10 min; retention time for reducing the number of bacteria to 1/100 or less [6]: ≤ 5 min; compounding property: mixing with the other ingredients ([7]; cream, 2.0% by weight): mixed very well; blending property: mixing with the other ingredients ([7]; milky lotion, 1.0% by weight): immediately mixed; compounding property: mixing with the other ingredients ([7]; skin lotion, 0.5% by weight): easily mixed
